pIC50: −log10 of the molar value.

What is called pIC50 is the negative decadic logarithm of the IC50, by convention in mol/L.

Sequence of POLRMT (O00411 42-1230): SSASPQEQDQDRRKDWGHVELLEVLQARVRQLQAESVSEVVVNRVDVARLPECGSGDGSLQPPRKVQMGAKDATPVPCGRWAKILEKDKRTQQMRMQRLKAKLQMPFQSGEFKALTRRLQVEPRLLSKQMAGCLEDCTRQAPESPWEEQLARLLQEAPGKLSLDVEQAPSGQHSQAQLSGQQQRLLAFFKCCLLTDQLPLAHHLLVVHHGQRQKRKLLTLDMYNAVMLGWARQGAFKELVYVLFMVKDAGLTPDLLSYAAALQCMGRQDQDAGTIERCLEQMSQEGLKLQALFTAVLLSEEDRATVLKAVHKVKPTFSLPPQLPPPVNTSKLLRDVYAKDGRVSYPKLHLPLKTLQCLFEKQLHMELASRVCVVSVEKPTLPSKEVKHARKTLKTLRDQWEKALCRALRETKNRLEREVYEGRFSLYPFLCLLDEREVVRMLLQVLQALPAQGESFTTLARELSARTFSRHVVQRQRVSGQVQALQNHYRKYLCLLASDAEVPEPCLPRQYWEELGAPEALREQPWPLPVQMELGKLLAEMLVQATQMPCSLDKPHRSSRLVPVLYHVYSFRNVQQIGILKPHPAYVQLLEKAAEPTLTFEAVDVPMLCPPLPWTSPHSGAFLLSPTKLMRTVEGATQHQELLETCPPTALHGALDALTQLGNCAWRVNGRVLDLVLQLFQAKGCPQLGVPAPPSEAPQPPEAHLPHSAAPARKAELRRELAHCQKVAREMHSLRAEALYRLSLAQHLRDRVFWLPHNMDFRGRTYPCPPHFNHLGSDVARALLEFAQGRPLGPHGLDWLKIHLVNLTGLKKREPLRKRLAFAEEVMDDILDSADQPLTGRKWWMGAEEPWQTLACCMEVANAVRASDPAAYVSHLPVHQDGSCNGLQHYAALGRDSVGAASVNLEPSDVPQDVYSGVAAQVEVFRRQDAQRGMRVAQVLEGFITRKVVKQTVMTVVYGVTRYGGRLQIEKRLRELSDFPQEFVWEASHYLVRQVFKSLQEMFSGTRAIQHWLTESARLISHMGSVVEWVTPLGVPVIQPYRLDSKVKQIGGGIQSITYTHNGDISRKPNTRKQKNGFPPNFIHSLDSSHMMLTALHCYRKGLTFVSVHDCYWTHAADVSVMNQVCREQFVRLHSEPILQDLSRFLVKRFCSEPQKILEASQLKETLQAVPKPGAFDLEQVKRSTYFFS

The assay addresses POLRMT (Homo sapiens (Human), UniProt O00411). Kind of assay: homogeneous TR-FRET assay of mitochondrial transcription (inhibition of POLRMT). The class given is biochemical. As to conditions: 7.5 nM POLRMT, 15 nM TFB2M, 30 nM TFAM, 0.5 nM DNA template, 500 μM NTPs, 37° C. for 60 minutes. In a few lines: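 POLRMT transcription from linearized pUC-LSP DNA template; RNA product detected by hybridization of ATTO647 acceptor (1 nM) and biotinylated donor (3 nM) probes plus Europium-streptavidin. Reaction stopped with EDTA/700 mM NaCl buffer, pH 7.5.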
(TR-FRET usually uses a lanthanide donor and a delayed reading to cut background.)
`CC(=O)N(C)[C@H]1CCCN(C(=O)c2ccc3c(-c4ccccc4C)cc(=O)oc3c2)C1` [Example 173, (S)—N-methyl-N-(1-(2-oxo-4-(o-tolyl)-2H-chromene-7-carbonyl)piperidin-3-yl)acetamide] gave a pIC50 of 4.14.

In turn, `CC[C@@H](Nc1ccc2c(-c3ccccc3C)cc(=O)oc2c1)C(N)=O` [Example 211, (R)-2-((2-oxo-4-(o-tolyl)-2H-chromen-7-yl)amino)butanamide] had a pIC50 of 6.00.

Take `Cc1ccccc1-c1cc(=O)oc2cc(NCC(=O)O)ccc12` [Example 71, (2-oxo-4-(o-tolyl)-2H-chromen-7-yl)glycine]: the pIC50 was 5.22.

As for `Cc1ccccc1-c1cc(=O)oc2cc(CN(C)C(=O)C3CCC(C(=O)O)CC3)ccc12` [Example 158, (1S,4S)-4-(methyl((2-oxo-4-(o-tolyl)-2H-chromen-7-yl)methyl)carbamoyl)cyclohexane-1-carboxylic acid], the pIC50 is 6.10.

Take `Cc1ccc2c(-c3ccc(F)cc3Cl)cc(=O)oc2c1` [Example 03, 4-(2-chloro-4-fluorophenyl)-7-methyl-2H-chromen-2-one]: the pIC50 is 4.72. This pIC50 is 1.38 log units lower than that of the compound before.

Turning to `Cc1ccccc1-c1cc(=O)oc2cc(CC(C)C(=O)O)ccc12` (stereo not shown) [Example 52, 2-methyl-3-[4-(o-tolyl)-2-oxo-chromen-7-yl]propanoic acid], the pIC50 was 6.70.

`CNC(=O)C(C)Cc1ccc2c(-c3ccccc3C)cc(=O)oc2c1` (single isomer, unassigned) [Example 66, N,2-dimethyl-3-(2-oxo-4-(o-tolyl)-2H-chromen-7-yl)propanamide] showed a pIC50 of 6.30.

`CC(=O)N(C)C1CCN(C(=O)c2ccc3c(-c4ccccc4C)cc(=O)oc3c2)CC1` [Example 110, N-methyl-N-(1-(2-oxo-4-(o-tolyl)-2H-chromene-7-carbonyl)piperidin-4-yl)acetamide] gave a pIC50 of 5.10.

Turning to `CCOC(=O)[C@@H]1C[C@@H]1c1ccc2c(-c3ccccc3C)cc(=O)oc2c1` [Example 224, ethyl (1R,2S)-2-(2-oxo-4-(o-tolyl)-2H-chromen-7-yl)cyclopropane-1-carboxylate], the pIC50 is 6.52.

As to `C[C@H](Cc1ccc2c(-c3ccc(F)cc3Cl)cc(=O)oc2c1)C(=O)N(C)C` [Example 21, (R)-3-(4-(2-chloro-4-fluorophenyl)-2-oxo-2H-chromen-7-yl)-N,N,2-trimethylpropanamide], the pIC50 is 4.31.

The compound `C[C@@H](Cc1ccc2c(-c3ccc(F)cc3Cl)cc(=O)oc2c1)C(=O)N(C)C` [Example 20, (S)-3-(4-(2-chloro-4-fluorophenyl)-2-oxo-2H-chromen-7-yl)-N,N,2-trimethylpropanamide] showed a pIC50 of 6.10.

`CCNC(=O)[C@@H](C)Nc1ccc2c(-c3ccc(F)cc3Cl)cc(=O)oc2c1` [Example 48, (R)-2-((4-(2-chloro-4-fluorophenyl)-2-oxo-2H-chromen-7-yl)amino)-N-ethylpropanamide] had a pIC50 of 5.52. This pIC50 lies 0.58 log units lower than the previous one.

As for `Cc1ccccc1-c1cc(=O)oc2cc(CN(C)C(=O)N3CCC(C(=O)O)CC3)ccc12` [Example 147, 1-(methyl((2-oxo-4-(o-tolyl)-2H-chromen-7-yl)methyl)carbamoyl)piperidine-4-carboxylic acid], the negative logarithm of the IC50 (pIC50) is 6.52.

In turn, `COc1ccccc1-c1cc(=O)oc2cc(NC(=O)C(C)C)ccc12` [Example 30, N-(4-(2-methoxyphenyl)-2-oxo-2H-chromen-7-yl) isobutyramide] had a pIC50 below 4.00.

With `Cc1ccccc1-c1cc(=O)oc2cc(C(=O)N(C)CC(N)=O)ccc12` [Example 112, N-(2-amino-2-oxoethyl)-N-methyl-2-oxo-4-(o-tolyl)-2H-chromene-7-carboxamide], the negative-log IC50 (pIC50) is 4.57.

`Cc1ccccc1-c1cc(=O)oc2cc(N[C@@H](C)CC(=O)O)ccc12` [Example 149, (S)-3-((2-oxo-4-(o-tolyl)-2H-chromen-7-yl)amino)butanoic acid] had a negative-log IC50 (pIC50) of 6.00.

The values are drawn from patent US20250326732A1 (Pretzel Therapeutics, Inc., priority 2021, published 2025).
